Active and inactive are the calls of the source.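 Rule for the calls: active = in confirmatory dose-response testing, peak deubiquitinase inhibition of 30% or more; inactive = the rest.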
molecular target: Ubiquitin carboxyl-terminal hydrolase 28 (Homo sapiens) (UniProt Q96RU2); assay: Ubiquitin-specific peptidase 28 DUB inhibitors, biochemical concentration-dependence assay, validation of primary screening hits (AID 1645866); conditions: purified USP28, ubiquitin-rhodamine fluorescence, 30 min
Sequence (Q96RU2 whole entry, looked up): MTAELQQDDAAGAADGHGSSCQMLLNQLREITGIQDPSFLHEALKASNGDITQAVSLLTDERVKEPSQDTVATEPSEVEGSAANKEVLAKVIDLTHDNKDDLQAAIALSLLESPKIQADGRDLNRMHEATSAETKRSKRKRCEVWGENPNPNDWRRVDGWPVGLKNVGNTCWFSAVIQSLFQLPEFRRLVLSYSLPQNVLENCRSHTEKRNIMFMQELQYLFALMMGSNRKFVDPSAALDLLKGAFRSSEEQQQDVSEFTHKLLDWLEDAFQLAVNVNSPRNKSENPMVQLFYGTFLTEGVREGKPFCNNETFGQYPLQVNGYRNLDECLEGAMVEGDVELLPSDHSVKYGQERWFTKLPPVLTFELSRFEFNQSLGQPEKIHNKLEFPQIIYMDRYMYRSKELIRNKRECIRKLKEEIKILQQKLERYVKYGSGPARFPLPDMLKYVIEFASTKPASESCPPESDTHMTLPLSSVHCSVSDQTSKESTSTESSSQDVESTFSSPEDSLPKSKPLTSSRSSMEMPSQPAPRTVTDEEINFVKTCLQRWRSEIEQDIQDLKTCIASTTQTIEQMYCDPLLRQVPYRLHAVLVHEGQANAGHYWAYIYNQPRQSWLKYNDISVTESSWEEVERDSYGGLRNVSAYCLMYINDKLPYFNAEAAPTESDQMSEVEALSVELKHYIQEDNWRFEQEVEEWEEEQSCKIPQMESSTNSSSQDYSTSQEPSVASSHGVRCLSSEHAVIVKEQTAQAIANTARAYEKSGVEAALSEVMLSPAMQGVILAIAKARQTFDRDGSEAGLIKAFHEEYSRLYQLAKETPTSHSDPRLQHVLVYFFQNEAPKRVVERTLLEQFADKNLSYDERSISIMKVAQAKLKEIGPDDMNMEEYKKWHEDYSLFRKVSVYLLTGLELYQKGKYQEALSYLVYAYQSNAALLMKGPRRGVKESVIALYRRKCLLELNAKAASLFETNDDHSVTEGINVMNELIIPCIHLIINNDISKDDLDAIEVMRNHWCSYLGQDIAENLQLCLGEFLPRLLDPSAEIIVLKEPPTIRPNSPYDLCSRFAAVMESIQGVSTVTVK

Structure (SMILES) | IC50
O=C(O)c1ccccc1C(=O)Nc1ccc(SC(C(=O)Nc2cccc(Cl)c2)c2ccccc2)cc1 (stereo unspecified) | 22.4 µM
COc1ccc(CNC(=O)CSc2nc3nc(C)ccc3o2)cc1 | 31.3 µM
CC1=C[C@@H](C)CC[C@H]2O[C@@H](C3=C(O)C(=O)C(C)=C4O[C@](O)(C=C43)[C@@H](C)C[C@H](C)C1)[C@H](C)[C@@H](O)[C@H]2C | 19.5 µM
CN1C(=O)[C@]23CC4=CC=C[C@H](O)[C@H]4N2C(=O)[C@@]1(CO)SS3 | > 50 µM (inactive)
CC(C)CC1NC(=O)C2CCCN2C1=O (stereo unspecified) | 37.1 µM
Cc1ccc(-c2cnc(C3CC3)o2)cc1S(=O)(=O)Nc1ccc(F)c(Cl)c1 | 32.5 µM
CNC(=O)c1cc2nc(N(C)C)n(-c3ccc(F)cc3)c2s1 | 11.6 µM
CCc1c(Cl)c(O)c(Cl)c(O)c1C(=O)O[C@H]1C(C)O[C@@H](OC/C2=C\C=C\CC(O)/C(C)=C/C(CC)C(O[C@@H]3OC(C)(C)[C@H](O)C(OC(=O)C(C)C)[C@@H]3O)/C(C)=C/C(C)=C/CC(C(C)O)OC2=O)[C@@H](OC)C1O (stereo partly specified) | > 50 µM (inactive)
Cn1ccnc1CN1C[C@H]2CCN(c3ncccn3)C[C@H]2C1 | > 50 µM (inactive)
Cc1ccc2c(c1)N=C(c1ccc([N+](=O)[O-])cc1)CO2 | > 50 µM (inactive)
CC(C)(C)c1ccc(Cn2nnc3c(=O)[nH]c(C4CCN(S(=O)(=O)c5ccc(S(=O)(=O)NC6CC6)cc5)CC4)nc32)cc1 | 30.9 µM
Cc1ccc(O)c(-c2cc(C(=O)Nc3ccccc3Cl)[nH]n2)c1 | 17.1 µM
O=C(NC1CC1)c1ccnn1-c1ccc2ccc(-c3ccncc3)cn12 | > 50 µM (inactive)
COC(=O)c1ccc2c(=O)n(CCCCCC(=O)NCCc3ccc(S(N)(=O)=O)cc3)c(=O)[nH]c2c1 | 8.65 µM
O=C1Oc2nc3ccccc3cc2CN1Cc1ccco1 | 18.4 µM
CN1CC2CN(C(=O)Nc3cccnc3)CCN2Cc2ccccc21 (stereo unspecified) | > 50 µM (inactive)
O=C(COc1ccc(Cl)cc1)Nc1noc(-c2ccccc2)n1 | 22.4 µM
COc1ccc(NC(=O)CSc2nnc(Cc3cccc4ccccc34)n2C)cc1 | 17.5 µM
Cc1ccc2nc(CNC(=O)c3ccccc3-c3nc(-c4ccc(F)cc4)no3)[nH]c2c1 | 39 µM
O=C(CNS(=O)(=O)c1ccc(F)cc1)N1CCCC(c2nnc3ccccn23)C1 (stereo unspecified) | 24.4 µM
CCc1nc2c(NC(=O)Nc3cccc(C(=O)OC)c3)cccn2n1 | 2.91 µM
Cc1ccc2c(c1)c(=O)c(C(=O)c1ccccc1)cn2CC(=O)Nc1ccccc1 | 15.4 µM
FC(F)(F)c1ccccc1CCN1CCc2nc3ncc(Cl)cc3cc2C1 | > 50 µM (inactive)
Cc1ncc(CO)c2c1Oc1nc(-c3cccc(Cl)c3)nc(SCC(=O)N3CCCCC3)c1C2 | > 50 µM (inactive)

Structure (SMILES) | IC50
O=C(Nc1nc2ccccc2s1)c1ccc2c(c1)C(=O)N(Cc1cccnc1)C2=O | 1.93 µM
COc1ccc(/C=C\c2nccc3c2[nH]c2ccccc23)cc1 | > 50 µM (inactive)
CC1CCN(c2cc(-n3cnc(C(=O)N4CCCC(C)C4)c3)ncn2)CC1 (stereo unspecified) | 10.1 µM
COC(=O)CC1CC23OC2(C(=O)c2c(O)cccc2C3=O)C(C)O1 (stereo unspecified) | 3.55 µM
COc1cc2c(cc1NC(=O)c1ccc(-n3cnnn3)cc1)oc1ccccc12 | 1.33 µM
O=C(NCc1ccccc1)c1ccc2c(=O)n(-c3ccccc3)c(=O)[nH]c2c1 | 18.6 µM
COc1ccc(-c2cc(N3CCC(NC(=O)c4ccccc4)C3)n[nH]2)cc1 (stereo unspecified) | 16 µM
Cc1cccc(N2C(=O)/C(=C\c3ccc4c(c3)OCCO4)c3ccccc3C2=O)c1 | 19.2 µM
Cc1cc(C)c2cc3c(nc2c1)OC(=O)N(Cc1ccco1)C3 | 9.77 µM
CCc1nc(-c2cccc(NC(=O)c3ccc(C#N)cc3F)c2)no1 | 36.2 µM
Cc1cccc(C(=O)Nc2cccc(SC(C(=O)Nc3ccc(O)c(C(=O)O)c3)c3ccccc3)c2)c1 (stereo unspecified) | 3.72 µM
Cc1cc(C)c(O)c(-c2cc(C(=O)Nc3ccccc3Cl)[nH]n2)c1 | 3.54 µM
O=C(Nc1ccc2c(c1)OCCO2)c1cccc2nc3ccccc3nc12 | 1.99 µM
COc1ccc2c(c1)CCc1c(C(=O)NCc3cccnc3)noc1-2 | 20.3 µM
C[C@@H]1O[C@@H](O[C@H]2[C@H](O[C@H]3[C@H](O[C@H]4CC[C@@]5(C)[C@@H](CC[C@]6(C)[C@@H]5CC=C5[C@@H]7CC(C)(C)CC(=O)[C@]7(C)CC[C@]56C)[C@@]4(C)CO)O[C@H](C(=O)O)[C@@H](O)[C@@H]3O)OC[C@@H](O)[C@@H]2O)[C@H](O)[C@H](O)[C@H]1O | 48.4 µM
CCOC(=O)c1sc2nc(CC(=O)OC)nc(NCc3ccco3)c2c1C | > 50 µM (inactive)
Cc1nn(-c2cc(N3CCOCC3)ncn2)c(C)c1CCC(=O)Nc1ccc(C(C)C)cc1 | 23 µM
COc1ccc(CC(=O)Nc2nc(-c3ccco3)c(-c3ccco3)s2)cc1 | > 5 µM (inactive)
O=C(CNC(=O)c1cc2ccccc2[nH]1)Nc1ccc2c(c1)OCCO2 | 45.9 µM
O=[N+]([O-])c1ccccc1C(c1c[nH]c2ccccc12)c1c[nH]c2ccccc12 | 23.8 µM
Cn1nccc1C(=O)N1CCCCC1c1ncc(Cc2ccc(Cl)cc2)o1 (stereo unspecified) | > 50 µM (inactive)
c1csc(CCN2CCc3nc4cccnc4cc3C2)c1 | > 50 µM (inactive)
COc1ccccc1-c1nc(-c2nnn(Cc3ccc(C)cc3)c2C)no1 | 5.47 µM
CC(C)(C)C(=O)C1C2C(=O)N(Cc3ccccc3)C(=O)C2C2c3ccccc3C=CN12 (stereo unspecified) | > 50 µM (inactive)

Structure (SMILES) | IC50
COc1ccc(NC(=O)Cn2c(CS(=O)(=O)c3ccc(C)cc3)nc3ccccc32)cc1 | 12.4 µM
CC(=O)c1ccc(NC(=O)C2CCN(c3cncnc3N3CCCC3)CC2)cc1 | 0.674 µM
c1coc(CNc2nc3ccccc3n3nnnc23)c1 | > 50 µM (inactive)
Cc1ccc(Cn2c(=O)n(CCC(=O)NCCc3ccccc3)c(=O)c3ccccc32)cc1 | 13 µM
CC1CCN(S(=O)(=O)c2ccc(C(=O)Nc3ccc(S(N)(=O)=O)cc3)cc2)CC1 | 30.1 µM
COc1ccc(Cl)cc1-n1nnc(C(=O)N2CCc3ccccc3C2)c1C | > 50 µM (inactive)
COc1cccc(NC(=O)Nc2ccc3nc4n(c(=O)c3c2)CCCC4)c1 | 3.13 µM
c1ccc(Cc2nn3c(-c4cccnc4)nnc3c3ccccc23)cc1 | 2.53 µM
Cc1cc2nc(-c3ccc(SCc4ccccn4)nc3)[nH]c2cc1C | 12.5 µM
CC(C)c1nc2sc3c(N(CCO)CCO)ncnc3c2c2c1COC(C)(C)C2 | > 50 µM (inactive)
CCCn1c(=O)n(CC(=O)c2ccccc2F)c2c(C(N)=O)nc(-c3ccco3)nc21 | > 50 µM (inactive)
O=C(Nc1ccccc1)c1cn(-c2cc(N3CCCC3)ncn2)cn1 | > 50 µM (inactive)
Cc1ccc2c(C)nc(Nc3ncc4c(n3)CC(c3ccco3)CC4=O)nc2c1 (stereo unspecified) | < 0.05 µM
COc1cccc2c1OCC(NS(=O)(=O)c1cc(C)ccc1C)C2 (stereo unspecified) | > 50 µM (inactive)
O=C(c1cscn1)N1CCC2(CC1)CC1(CO2)Nc2ccccc2-n2cccc21 (stereo unspecified) | > 50 µM (inactive)
CCn1cnc2c1c(=O)n(CC(=O)NCc1ccccc1Cl)c(=O)n2Cc1ccccc1 | > 50 µM (inactive)
CCN(CCCNC(=O)c1ccc(Cn2c(=O)[nH]c3ccccc3c2=O)cc1)c1ccccc1 | 13.6 µM
CN(Cc1ccccc1)S(=O)(=O)c1ccc(S(=O)(=O)N2CCN(C(=O)c3cccnc3)CC2)cc1 | 18.8 µM
Cc1sc2nc(CN3CCCC3)nc(NCCc3ccc(Cl)cc3)c2c1C | > 50 µM (inactive)
Cc1cccc(C(=O)N2CCN3Cc4ccccc4N(C)CC3C2)c1 (stereo unspecified) | > 50 µM (inactive)
COc1ccc(CNC(=O)CN2C(=O)C(C)=C(c3ccc(C)cc3)S2(=O)=O)cc1 | > 50 µM (inactive)
Cc1cc(C)c2c(-n3cccc3)c(C(=O)NCCc3ccc(S(N)(=O)=O)cc3)sc2n1 | 2.55 µM
CCn1cc2c(n1)c(=O)n(Cc1ccccc1)c(=O)n2CC(=O)Nc1ccc(OC)cc1 | 10.5 µM
COc1ccc(/C=C/C(=O)N2CCc3ccccc32)cc1S(=O)(=O)N1CCOCC1 | > 50 µM (inactive)

Structure (SMILES) | IC50
COc1ccc2nc(SCC(=O)Nc3ccc(NC(C)=O)cc3)c(C)cc2c1 | 9.45 µM
O=C(NC1CCN(Cc2ccccc2)CC1)c1[nH]nc2c1COc1ccccc1-2 | 6.98 µM
Cc1ccc(Nc2nc(Nc3cccc(F)c3)nc3nccnc23)c(C)c1 | > 50 µM (inactive)
Cc1noc(C)c1CN1CC[C@H]2O[C@H](C(=O)NCc3ccco3)CC[C@H]21 | > 50 µM (inactive)
O=C(c1ccco1)N1CCN=C1SCc1ccccc1F | 9.78 µM
COc1ccc(C(=O)N2CCCC3(C2)Nc2cccnc2NC3=NC2CCCC2)cn1 (stereo unspecified) | > 50 µM (inactive)
O=C(NCCc1ccccc1F)c1cn2cc(Cl)ccc2n1 | 31.8 µM
NS(=O)(=O)c1ccc(NS(=O)(=O)c2ccc(NC(=O)Nc3ccc(Cl)cc3)cc2)cc1 | 3.85 µM
O=C(CCCn1c(=O)c2ccccc2n(CC(=O)NCc2ccccc2Cl)c1=O)NCc1ccc2c(c1)OCO2 | 1.94 µM
CC(C)c1cc(Nc2cccc(F)c2)n2nc(-c3cccnc3)nc2n1 | 24.8 µM
COc1ccc(C2CC(c3ccc(C)cc3)N(C(=O)C3CC3)c3ncnn32)cc1 (stereo unspecified) | > 50 µM (inactive)
O=C(NCc1ccc2c(c1)OCO2)c1cc(-c2cc(Cl)ccc2O)n[nH]1 | 12 µM
Cc1ccccc1Cn1ccc2ccn(Cc3cccnc3)c2c1=O | 10.4 µM
Cc1ccc(-c2nc(-c3cccs3)cc(C(F)(F)F)c2C#N)cc1 | > 50 µM (inactive)
COc1cccc(-c2cc(C(=O)N3CCN(c4ccc(N5CCOCC5)nn4)CC3)[nH]n2)c1 | 3.83 µM
O=C(Cc1ccccc1F)Nc1nc(-c2ccco2)c(-c2ccco2)s1 | > 50 µM (inactive)
O=C(NCCCc1nc2ccccc2n1Cc1c(Cl)cccc1Cl)c1ccco1 | 25.3 µM
COCCNC(=O)c1ccnn1-c1ccc2ccc(-c3cccnc3)cn12 | > 50 µM (inactive)
Cc1nc(NCc2ccccn2)c2cc(-c3ccccc3)sc2n1 | 23.7 µM
Cc1ccc(NC(=O)c2ccc3c(c2)N(S(C)(=O)=O)CC3)cc1 | 25.2 µM
O=C(Nc1cccc(S(=O)(=O)N2CCCC2)c1)c1ccc2c(=O)n3c(nc2c1)CCCCC3 | 21.2 µM
Cc1cc(C)n(-c2cccc(C(=O)Nc3ccc4c(c3)CCN4S(C)(=O)=O)c2)n1 | 3.69 µM
CN(C)S(=O)(=O)c1ccc(C(=O)Nc2c(C#N)oc3ccccc23)cc1 | > 50 µM (inactive)
O=C(CSc1ncnc2c1oc1ccccc12)Nc1ccc2c(c1)OCCO2 | 17.1 µM

Source: PubChem BioAssay AID1645866 (Buhrlage Lab, Dana-Farber Cancer Institute and Novartis …, 2021)
